Laboratory results taken from patent US9187784B2, “EphA4 is a disease modifier in motor neuron disease” (VIB VZW, priority 2011, dated 2015).
Marks after values point to notes of the source that are not given here.

Tested on: mutant SOD1-overexpressing fish
Test: mutant SOD1-induced motor axonopathy in zebrafish embryos (percentage affected embryos, motor axon length)
Type: in vivo
Description: FIG. 1: EphA4 knockdown rescues mutant SOD1-induced motor axonopathy. […] Abnormal branching is indicated with arrowhead. Y-axes show motor axon length of zebrafish embryos expressing wild-type SOD1 (black bar, Panels D-G) or mutant SOD1 (white bar, Panels D-G). Knockdown of RTK2 in SOD1A4V- (Panel D), SOD1G93A- (Panel E) and SOD1G37R- (Panel F) expressing fish was established by co-injection of increasing amounts of atg-RTK2 morpholino (shaded bars). RTK1 expression was inhibited in SOD1A4V-expressing fish by co-injection of atg-RTK1 morpholino (shaded bars, Panel G). Ctr-RTK2 and ctr-RTK1 were used as control. ANOVA and Bonferroni's multiple comparison tests were used for statistical analysis. Comparing axonal length in SOD1A4V fish injected with ctr-RTK2 (n=39) vs. different doses atg-RTK2: 3 ng (n=43, p=0.0059), 4.5 ng (n=37, p=0.0016, Panel D), SOD1G93A: ctr-RTK2 (n=60) vs. atg-RTK2: 1.5 ng (n=55, p=0.015), 3 ng (n=51, p=2.82×10-9), 4.5 ng (n=46, p=2.22×10-15, Panel E), SOD1G37R: ctr-RTK2 (n=37) vs. atg-RTK2: 3 ng (n=25, p=0.027), 4.5 ng (n=36, p=0.0018, Panel F) and SOD1A4V: ctr-RTK1 (n=49) vs. atg-RTK1: 1.5 ng (n=51, p=2.51×10-7), 3 ng (n=64, p=7.99×10-10), 4.5 ng (n=54, p<1×10-20, Panel G). Western blot of SOD1WT or SOD1A4V (1.76 ng) expressing zebrafish embryos (30 hpf), co-injected with either ctr-RTK1 or atg-RTK1 (4.5 ng). Sixty embryos were used per group with actin as the loading control (H). Immunostaining of rtk1 (green) in rhombomeres 3 and 5 and of ephrin-b2 (magenta) in rhombomere 4 in zebrafish embryos injected with either ctr-RTK1 or atg-RTK1 (4.5 ng). RTK1-depleted embryos show disorganized rhombomere boundaries (arrowhead, I, Scale bar 50 μm). Error bars are s.e.m.
FIG. 2: RTK2 knockdown protects motor axons against SOD1^A4V-induced injury. Effect of RTK2 knockdown, established by injection of splice-rtk2 morpholino, on the motor axon length of SOD1^A4V-expressing zebrafish embryos (30 hpf). SOD1^WT-expressing fish and a non-functional five-base pair-mismatch control morpholino (ctr-RTK2) were used as control (Panel A). ANOVA and Bonferroni's multiple comparison tests were used for statistical analysis: SOD1^A4V/ctr-RTK2 (n=56) vs. SOD1^A4V/spl-RTK2 (n=60, 1.79×10^−4). Spl-RTK2 was designed against the exon 2 splice site of the zebrafish RTK2 pre-mRNA and alternatively skipped out exon 2. RT-PCR on non-transgenic fish (lane 1), ctr-RTK2-injected fish (lane 2) and spl-RTK2-injected fish (lane 3) at 30 hpf. Functional RTK2 mRNA, containing exon 2, is indicated by the 818-bp product (upper band) while non-functional RTK2 mRNA, lacking exon 2 is indicated by the 156-bp product (lower band), 60 embryos each group (Panel B). Error bars are s.e.m.
FIG. 12: Pharmacological inhibition of EphA4 receptor signaling protects against mutant SOD1 pathology in vivo. Effect of treatment with Compound 1 (C1, 500 μM) on the motor axon length of zebrafish embryos (30 hpf). DMSO (1/250 dilution) was used as control (Panel A). ANOVA and Bonferroni's multiple comparison tests were used for statistical analysis: SOD1^A4V/C1 (n=68) vs. SOD1^A4V/DMSO (n=76, p=3.54×10^−5). Effect of KYL-peptide (3 mM) treatment of 60-day-old SOD1^G93A rats on disease onset (Panel B) and survival (Panel C). Artificial CSF (ACSF) was used as control. Average disease onset: 133 days (treated, n=21) versus 125 days (control, n=17, T-test p=0.044). Average survival: 148 days (treated, n=21) versus 139 days (controls, n=17, T-test p=0.041). Error bars are s.e.m.
Effect of RTK2 knockdown (established by injection of atg-RTK2 morpholino) on the percentage of affected wild-type SOD1 or mutant SOD1 (A4V, G93A, G37R) zebrafish embryos (30 hpf). Ctr-RTK2 morpholino was used as control. An embryo was considered as affected when it had more than 10% abnormally branched motor axons. Significance of mtSOD1/ctr-RTK2 (4.5 ng) vs. mtSOD1/atg-RTK2 (4.5 ng) was determined by Mann-Whitney test, * p=0.0075, ° p=0.039 and # p=0.0052. […]

5′-CTGTGAACACAAGCGCAGCCATTGG-′3 (all phosphorodiamidate morpholino (PMO)) [atg-RTK1]
% affected fish (Table 4, SOD1A4V fish, morpholino 1.5 ng): 38 (24) % | % affected fish (Table 4, SOD1A4V fish, morpholino 3 ng): 22 (33) % | % affected fish (Table 4, SOD1A4V fish, morpholino 4.5 ng): 8* (26) % | % affected fish (Table 4, SOD1WT fish, morpholino 4.5 ng): 14 (14) %

Cc1ccc(C)n1-c1ccc(C(=O)O)c(O)c1 [Compound C1]
% affected fish (Table 4, SOD1A4V fish, C1 500 μM in the water): 11° (26) % | % affected fish (Table 4, SOD1WT fish, C1 500 μM in the water): 15 (32) %
